{"source": "patent US12673945B2", "about": "“3-((8-((1H-pyrazol-4-yl)amino)imidazo[1,2-a]pyridin-3-yl)ethinyl)-n-phenylbenzamide derivative, method for preparing same, and pharmaceutical composition containing same as active ingredient for prevention or treatment of cancer” (DAEGU-GYEONGBUK MEDICAL INNOVATION FOUNDATION, priority 2020, dated 2026)", "assay_type_in_all_cases": "cell-based", "key": {"Parental (Ba/F3)": {"system": "Parental (Ba/F3)", "experiment": "Ba/F3 cell proliferation inhibition", "conditions": "BaF3; 72 hours, Cell Counting Kit-8", "method_in_brief": "(§1)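 GI50 derived from CCK-8 absorbance at 450 nm (2 h development), expressed relative to DMSO vehicle. Cells (parental or T315I-Bcr-Abl Ba/F3, 1×10^4/well) received nine threefold-diluted concentrations, final 0 to 10 μM, for 72 h at 37 °C.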"}, "T315I-Bcr-Abl (Ba/F3)": {"system": "T315I-Bcr-Abl (Ba/F3)", "experiment": "Ba/F3 cell proliferation inhibition", "conditions": "BaF3; 72 hours, Cell Counting Kit-8", "method_in_brief": "as §1"}, "KOPM28 cells": {"system": "KOPM28 cells", "experiment": "human CML cell proliferation inhibition", "conditions": "72 hours, Cell Counting Kit-8", "method_in_brief": "(§2)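 Seed 1×10^4 cells/well; add compound, 9 concentrations by 5-fold dilution, final 0–10 μM, or DMSO; incubate 72 h, 37 °C, CO2; add CCK-8 for 2 h; read A450; normalise to vehicle; fit GI50.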"}, "T315I-KOPM28 cells": {"system": "T315I-KOPM28 cells", "experiment": "human CML cell proliferation inhibition", "conditions": "72 hours, Cell Counting Kit-8", "method_in_brief": "as §2"}, "T315I-TCCS cells": {"system": "T315I-TCCS cells", "experiment": "human CML cell proliferation inhibition", "conditions": "72 hours, Cell Counting Kit-8", "method_in_brief": "as §2"}, "TCCS cells": {"system": "TCCS cells", "experiment": "human CML cell proliferation inhibition", "conditions": "72 hours, Cell Counting Kit-8", "method_in_brief": "as §2"}}}
{"smiles": "Cc1cc(F)c(C(=O)Nc2ccc(CN3CCN(CCO)CC3)c(C(F)(F)F)c2)cc1C#Cc1cnc2c(Nc3cnn(C)c3)cccn12", "note": "[Example 56, 2-fluoro-N-(4-((4-(2-hydroxyethyl)piperazin-1-yl)methyl)-3-(trifluoromethyl)phenyl)-4-methyl-5-((8-((1-methyl-1H-pyrazol-4-yl)amino)imidazo[1,2-a]pyridin-3-yl)ethynyl)benzamide]", "values": [{"measurement": "GI50", "setting": "Parental (Ba/F3)", "value": "500 to 5000", "unit": "nM"}, {"measurement": "GI50", "setting": "T315I-Bcr-Abl (Ba/F3)", "value": "< 50", "unit": "nM"}, {"measurement": "GI50", "setting": "KOPM28 cells", "value": "< 10", "unit": "nM"}, {"measurement": "GI50", "setting": "T315I-KOPM28 cells", "value": "< 10", "unit": "nM"}, {"measurement": "GI50", "setting": "T315I-TCCS cells", "value": "< 10", "unit": "nM"}, {"measurement": "GI50", "setting": "TCCS cells", "value": "< 10", "unit": "nM"}]}
{"smiles": "Cc1cc(F)c(C(=O)Nc2ccc(CN3CCOCC3)c(C(F)(F)F)c2)cc1C#Cc1cnc2c(Nc3cnn(C)c3)cccn12", "note": "[Example 57, 2-fluoro-4-methyl-5-((8-((1-methyl-1H-pyrazol-4-yl)amino)imidazo[1,2-a]pyridin-3-yl)ethynyl)-N-(4-(morpholinomethyl)-3-(trifluoromethyl)phenyl)benzamide]", "values": [{"measurement": "GI50", "setting": "Parental (Ba/F3)", "value": "> 5000", "unit": "nM"}, {"measurement": "GI50", "setting": "T315I-Bcr-Abl (Ba/F3)", "value": "50 to 500", "unit": "nM"}, {"measurement": "GI50", "setting": "KOPM28 cells", "value": "< 10", "unit": "nM"}, {"measurement": "GI50", "setting": "T315I-KOPM28 cells", "value": "> 100", "unit": "nM"}, {"measurement": "GI50", "setting": "T315I-TCCS cells", "value": 100, "unit": "nM"}, {"measurement": "GI50", "setting": "TCCS cells", "value": 100, "unit": "nM"}]}
{"smiles": "Cc1cc(F)c(C(=O)Nc2ccc(CN3CCN(C)C(=O)C3)c(C(F)(F)F)c2)cc1C#Cc1cnc2c(Nc3cnn(C)c3)cccn12", "note": "[Example 58, 2-fluoro-4-methyl-5-((8-((1-methyl-1H-pyrazol-4-yl)amino)imidazo[1,2-a]pyridin-3-yl)ethynyl)-N-(4-((4-methyl-3-oxopiperazin-1-yl)methyl)-3-(trifluoromethyl)phenyl)benzamide]", "values": [{"measurement": "GI50", "setting": "Parental (Ba/F3)", "value": "> 5000", "unit": "nM"}, {"measurement": "GI50", "setting": "T315I-Bcr-Abl (Ba/F3)", "value": "< 50", "unit": "nM"}, {"measurement": "GI50", "setting": "KOPM28 cells", "value": "< 10", "unit": "nM"}, {"measurement": "GI50", "setting": "T315I-KOPM28 cells", "value": 100, "unit": "nM"}, {"measurement": "GI50", "setting": "T315I-TCCS cells", "value": 100, "unit": "nM"}, {"measurement": "GI50", "setting": "TCCS cells", "value": "< 10", "unit": "nM"}]}
{"smiles": "Cc1cc(F)c(C(=O)Nc2ccc(CN3CCC(N(C)C)C3)c(C(F)(F)F)c2)cc1C#Cc1cnc2c(Nc3cnn(C)c3)cccn12", "note": "(stereo not drawn) [Example 59, N-(4-((3-(dimethylamino)pyrrolidine-1-yl)methyl)-3-(trifluoromethyl)phenyl)-2-fluoro-4-methyl-5-((8-((1-methyl-1H-pyrazol-4-yl)amino)imidazo[1,2-a]pyridin-3-yl)ethynyl)benzamide]", "values": [{"measurement": "GI50", "setting": "Parental (Ba/F3)", "value": "> 5000", "unit": "nM"}, {"measurement": "GI50", "setting": "T315I-Bcr-Abl (Ba/F3)", "value": "50 to 500", "unit": "nM"}, {"measurement": "GI50", "setting": "KOPM28 cells", "value": "< 10", "unit": "nM"}, {"measurement": "GI50", "setting": "T315I-KOPM28 cells", "value": "> 100", "unit": "nM"}, {"measurement": "GI50", "setting": "T315I-TCCS cells", "value": 100, "unit": "nM"}, {"measurement": "GI50", "setting": "TCCS cells", "value": "< 10", "unit": "nM"}]}
{"smiles": "Cc1cc(F)c(C(=O)Nc2ccc(CN3CCN(S(C)(=O)=O)CC3)c(C(F)(F)F)c2)cc1C#Cc1cnc2c(Nc3cnn(C)c3)cccn12", "note": "[Example 60, 2-fluoro-4-methyl-5-((8-((1-methyl-1H-pyrazol-4-yl)amino)imidazo[1,2-a]pyridin-3-yl)ethynyl)-N-(4-((4-(methylsulfonyl)piperazin-1-yl)methyl)-3-(trifluoromethyl)phenyl)benzamide]", "values": [{"measurement": "GI50", "setting": "Parental (Ba/F3)", "value": "500 to 5000", "unit": "nM"}, {"measurement": "GI50", "setting": "T315I-Bcr-Abl (Ba/F3)", "value": "< 50", "unit": "nM"}, {"measurement": "GI50", "setting": "KOPM28 cells", "value": 100, "unit": "nM"}, {"measurement": "GI50", "setting": "T315I-KOPM28 cells", "value": "> 100", "unit": "nM"}, {"measurement": "GI50", "setting": "T315I-TCCS cells", "value": 100, "unit": "nM"}, {"measurement": "GI50", "setting": "TCCS cells", "value": "< 10", "unit": "nM"}]}
{"smiles": "Cc1cc(F)c(C(=O)Nc2ccc(CN3CCCN(C)CC3)c(C(F)(F)F)c2)cc1C#Cc1cnc2c(Nc3cnn(C)c3)cccn12", "note": "[Example 61, 2-fluoro-4-methyl-N-(4-((4-methyl-1,4-diazepan-1-yl)methyl)-3-(trifluoromethyl)phenyl)-5-((8-((1-methyl-1H-pyrazol-4-yl)amino)imidazo[1,2-a]pyridin-3-yl)ethynyl)benzamide]", "values": [{"measurement": "GI50", "setting": "Parental (Ba/F3)", "value": "500 to 5000", "unit": "nM"}, {"measurement": "GI50", "setting": "T315I-Bcr-Abl (Ba/F3)", "value": "< 50", "unit": "nM"}, {"measurement": "GI50", "setting": "KOPM28 cells", "value": "< 10", "unit": "nM"}, {"measurement": "GI50", "setting": "T315I-KOPM28 cells", "value": "< 10", "unit": "nM"}, {"measurement": "GI50", "setting": "T315I-TCCS cells", "value": 100, "unit": "nM"}, {"measurement": "GI50", "setting": "TCCS cells", "value": "< 10", "unit": "nM"}]}
{"smiles": "Cc1cc(F)c(C(=O)Nc2ccc(CN3CC(OC(C)C)C3)c(C(F)(F)F)c2)cc1C#Cc1cnc2c(Nc3cnn(C)c3)cccn12", "note": "[Example 62, 2-fluoro-N-(4-((3-isopropoxyazetidin-1-yl)methyl)-3-(trifluoromethyl)phenyl)-4-methyl-5-((8-((1-methyl-1H-pyrazol-4-yl)amino)imidazo[1,2-a]pyridin-3-yl)ethynyl)benzamide]", "values": [{"measurement": "GI50", "setting": "Parental (Ba/F3)", "value": "> 5000", "unit": "nM"}, {"measurement": "GI50", "setting": "T315I-Bcr-Abl (Ba/F3)", "value": "500 to 5000", "unit": "nM"}, {"measurement": "GI50", "setting": "KOPM28 cells", "value": "< 10", "unit": "nM"}, {"measurement": "GI50", "setting": "T315I-KOPM28 cells", "value": "> 100", "unit": "nM"}, {"measurement": "GI50", "setting": "T315I-TCCS cells", "value": "> 100", "unit": "nM"}, {"measurement": "GI50", "setting": "TCCS cells", "value": "< 10", "unit": "nM"}]}
